The values that follow come from patent publication US11786839B2, “Eutectic extract formation and purification” (Givaudan France Naturals SAS, priority 2018, dated 2023).

Assay [1] in a line: Conjugated autoxidizable triene (CAT) assay. It is filed as biochemical. As to the method: Antioxidant solutions were prepared as follows: a methanol solution of eutectic extract or Trolox (reference) was prepared at the desired concentration. […] Various volumes of this solution (25, 50, 75, and 100 μL) were then added to 24.9 mL of phosphate buffer solution (PBS), pH 7.2, and then filled to 25.0 mL with pure methanol (75, 50, 25, and 0 μL, respectively). In this way, all buffered solutions of eutectic extract contained the same methanol volume (100 μL), which minimizes any possible bias among samples. Samples of these solutions (50 μL/well) were transferred using a multichannel micropipet into UV-Star 96-well microplate (Greiner, Frickenhausen, Germany) (absorbance at 273 nm=0.03). The microplate was then prewarmed and stirred in a thermostated shaker (PHMT Grant Instruments, […], England) at 37° C. for 5 min at 1,200 rpm. […] Each well was then filled with 100 μL of this tung oil-in-PBS emulsion. To improve repeatability, the microplate was then immediately pre-warmed and shaken, sheltered from light, in a thermostated shaker (PHMT Grant Instruments) at 37° C. for 1 min at 1,200 rpm. Fifty microliters of a freshly prepared AAPH solution in PBS (4 mM) was added with a multi-channel micropipet. […] The progress of reactions was immediately monitored by recording the decrease in absorbance at 273 nm. […] Each experiment was performed in triplicate (three wells), and results were expressed as the mean of CAT value (see below) ±SD. Similarly, to the ORAC assay, the antioxidant value of a sample was calculated through the difference between the area under the curve of this sample and that of the blank (without eutectic extract). The result of this operation gave the net area under the curve (AUC) which was then plotted on a graph as a function of the concentration. Only the linear part of the curve was taken into account to calculate the slope which was then divided by the slope of the Trolox (standard) calculated in the same conditions and analyzed on the same microplate. As such, CAT values were expressed as μmol Trolox equivalent/g eutectic extract.

Assay [2] is described as follows: Oxygen radical absorbance capacity (ORAC) method.
Protocol: Test of Physico-Chemical Efficacy as Antioxidant—Oxygen Radical Absorbance Capacity (ORAC) Method
Phosphate buffer solutions (pH 7.2) containing the desired concentrations of eutectic extracts were prepared. Fifty millilitres of each solution were transferred by multi-channel pipette into a Fluotrac 96-well microplate (Greiner).
To improve the repeatability, the microplate was pre-heated at 37° C. under orbital stirring at 1,200 rpm in a temperature-controlled thermoshaker (PHMT series, Grant Instruments Ltd, Shepreth, England) for 20 minutes.
50 μL of AAPH solution in freshly prepared phosphate buffer solution was then added using a multi-channel pipette.
A drop in fluorescence to 515 nm (λex: 490 nm) was immediately recorded. Measurements were then taken every minute for 2 hours at 37±0.1° C. with 5 seconds of stirring before each measurement using a microplate reader.
[3] abbreviates: Table 1, fresh rosemary eutectic extracts.
Setting [4] is: Table 2, dried rosemary powder eutectic extracts.

Each structure is given as a SMILES string.

As to `CC[N+](CC)(CC)Cc1ccccc1.[Cl-]` [BTEAC alone, benzyltriethyl ammonium chloride], the CAT value in assay [1] (setting [3]) and in assay [1] (setting [4]) was 0.7 μmol TE/g in each case. Further, the ORAC value in assay [2] (setting [3]) and in assay [2] (setting [4]) was 2.8 μmol TE/g in each case.

With `CCCCCCCC/C=C\CCCCCCCC(=O)O` [oleic acid], in assay [2] (pure substance), the “ORAC method result in words” value is recorded as “positive value, although a modest one”.

Turning to `C[N+](C)(C)CCO.[Cl-]` [ChCl alone, choline chloride], the CAT value in assay [1] (setting [3]) and in assay [1] (setting [4]) was 0 μmol TE/g each time. The ORAC value in assay [2] (setting [3]) and in assay [2] (setting [4]) was 0.3 μmol TE/g each time.

`CCCCn1cc[n+](C)c1.[Cl-]` [BmimCl alone, 1-butyl-3-methylimidazolium chloride] came in with a CAT value in assay [1] (setting [4]) of 0.24 μmol TE/g. The molecule further gave an ORAC value in assay [2] (setting [4]) of 1.1 μmol TE/g.
